We go through seven compounds from PubChem BioAssay (NCI).

Several values for one entry are separate records, joined by “and”; a condition that tells them apart may be missing. Equal values may be shown once.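 In this assay, cells in 96-well plates receive the compound at five concentrations for 48 hours. Endpoints are linearly interpolated between the surrounding concentrations. GI50 is the concentration that inhibits growth by half. TGI: concentration producing complete growth inhibition.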

Holding throughout (assay): NCI-60 cell line screen, 48 h
Test [1] deals with MOLT-4 leukemia.
Test [2] deals with LOX IMVI melanoma.
Test [3] concerns SK-MEL-28 melanoma.
Test [4] concerns KM12 colon.
In test [5] the test system is UACC-257 melanoma.
Test [6] concerns SW-620 colon.
For test [7], the system named is NCI-H226 lung.
The test system of test [8] is SNB-75 CNS.
Test [9] concerns T-47D breast.
For test [10], the system named is A498 renal.

Regarding `Cc1cnc(NC(=O)Nc2cc(Br)c(C)cc2OC[C@@H]2CNCCO2)cn1`, the GI50 in test [1] was 0.445 µM and 0.368 µM; in test [2], 0.828 µM and 1.45 µM; in test [3] it was 2.21 µM and 2.44 µM; in test [4], 1.2 µM and 1.19 µM; in test [5] it was 1.59 µM and 2.44 µM; in test [6] it was 3.68 µM and 3.28 µM. Moreover, the GI50 in test [7] was 5.84 µM; in test [8], 4.61 µM and 2.95 µM; in test [9] it was 2.88 µM and 7.86 µM; in [10], 0.33 µM and 0.0894 µM. Also, the TGI in test [1] was > 10 µM and 3.9 µM; in test [2], 2.46 µM and 4.97 µM; in [3], 6.65 µM and 6.88 µM; in test [4], > 10 µM and 11.9 µM; in test [5], 3.59 µM and 8.37 µM; in test [6], > 10 µM and 13.4 µM. In addition, the TGI in test [7] was > 10 µM and 20.8 µM; in test [8], > 10 µM and 15.8 µM; in test [9], > 10 µM and 22.3 µM.
With `Cc1ccc(C)c2c1C(O)(C#Cc1ccccc1)c1ccccc1C2(O)C#Cc1ccccc1` (stereo not drawn), the GI50 in test [1] was 2.5 µM; in test [2], 3.44 µM; in test [3] it was 3.75 µM; in [4] it was 2.93 µM; in test [5] it was 2.54 µM; in test [6], 3.03 µM. Besides, the GI50 in test [7] is 1.9 µM; in [8] it was 4.04 µM; in test [9], 2 µM; in [10], 2.2 µM. Also, the TGI in test [1] is over 23.3 µM; in test [2] it was over 64.2 µM; in [3], over 88.5 µM; in [4], 27.1 µM; in test [5] it was 6.6 µM; in [6], over 100 µM. Moreover, the TGI in [7] was 9.46 µM; in [8], over 100 µM; in test [9] it was over 27.5 µM; in test [10] it was 14.9 µM.
As for `CN[C@H]1C=C[C@@H]2/C=C(C)/C=C/[C@@H](C)[C@H]([C@H](C)[C@H](O)[C@@H](C)NC(C)=O)OC(=O)/C=C/C=C(C)\C=C\[C@]2(C)C1`, the GI50 in [1] is 16.6 µM; in test [2] it was 0.0049 µM; in test [3], 0.00898 µM; in test [4], 0.00963 µM; in test [6], 0.00655 µM; in [7], 0.00743 µM. Besides, the GI50 in [8] was 0.0049 µM; in [9] it was < 0.001 µM and 0.0049 µM; in test [10] it was 0.0113 µM. The TGI in test [1] is over 49 µM; in test [2], 0.00504 µM; in test [3], 33.6 µM; in test [4], over 49 µM; in test [5], over 49 µM; in [6], over 49 µM. In addition, the TGI is 10.3 µM in test [7], 6.08 µM in [8], over 49 µM in test [9] and 2.67 µM in test [10].
Take `CCc1cccc(C)c1NC(=O)c1sc2nc3c(cc2c1N)CCCCC3`: the GI50 in test [1] is 4.56 µM; in test [2], 5.3 µM; in test [3], 12 µM; in [4], 3.46 µM; in test [5], 18.2 µM; in test [6], 3.76 µM. Further, the GI50 is 14.5 µM in test [7], 1.79 µM in [8], 4.65 µM in [9] and 2.2 µM in test [10]. The TGI in [1] is over 100 µM; in [2] it was 91.5 µM; in test [3], over 100 µM; in test [4], over 100 µM; in [5], over 100 µM; in test [6], over 100 µM. For the same compound, the TGI was over 100 µM in [7], 51.5 µM in test [8], over 100 µM in [9] and 23.3 µM in [10].
Consider `CN(C)CCCOc1ccc(-c2ccc3ncc4c(c3c2)n(C2CCOCC2)c(=O)n4C)cn1`, for which the GI50 is 1.51 µM in test [1]; 1.13 µM in test [2]; 1.97 µM in [3]; 3.16 µM in test [4]; 1.94 µM in test [5]; 2.81 µM in test [6]. The GI50 in [7] is 1.73 µM; in test [8], 0.396 µM; in test [9], 0.212 µM; in test [10], 0.559 µM. Besides, the TGI stood at 14.4 µM in test [1]; 6.51 µM in [2]; 13 µM in test [3]; 16.4 µM in [4]; 12.2 µM in [5]; 21.1 µM in [6]. The TGI in [7] amounted to 15.2 µM; in [8], 6.45 µM; in test [9] it was 2.92 µM; in test [10] it was 3.64 µM.
Consider `COC(=O)c1c2c(c[n+]([O-])c1C)C(=O)C=CC2=O`, for which the GI50 in [1] was 2.43 µM; in [2], 1.96 µM; in test [3] it was 2.14 µM; in [4], 4.27 µM; in [5], 2.26 µM; in [6], 2.08 µM. Besides, the GI50 in test [7] is 2.12 µM; in test [8] it was 1.72 µM; in test [9], 2.33 µM; in [10] it was 13.1 µM. For the same compound, the TGI stood at 6.21 µM in [1]; 4.18 µM in [2]; 3.97 µM in [3]; 18.8 µM in [4]; 5.54 µM in test [5]; 5.36 µM in test [6]. The TGI came out at 4.52 µM in [7], 4.13 µM in test [8], 6.85 µM in [9] and 26.4 µM in test [10].
For `Cc1cc(S(=O)(=O)Nc2nc3cscc3c(=O)n2Cc2ccccc2)c(S)cc1Cl`, the GI50 is 3.94 µM in test [1]; 23.2 µM in test [2]; 74.3 µM in test [3]; 21.9 µM in test [4]; over 100 µM in test [5]; 26.6 µM in [6]. Also, the GI50 is 60.1 µM in test [7], over 100 µM in test [8], 4.53 µM in test [9] and 46.6 µM in test [10]. Besides, the TGI in test [1] was 32.5 µM; in test [2], 51.6 µM; in test [3], over 100 µM; in test [4] it was 74.7 µM; in test [5], over 100 µM; in [6], over 100 µM. In addition, the TGI in test [7] was over 100 µM; in [8], over 100 µM; in test [9], 90.8 µM; in test [10], over 100 µM.
